For 63 compounds, EC50 and percent span inhibition results are on record in PubChem BioAssay AID1324 (NMMLSC, 2008).

One may read the EC50 as the concentration giving half of the maximal effect.

The source made the active and inactive calls. No rule for the calls is given here.

The target of one test is glutathione S-transferase (GST-GSH binding). Nature of the test: GST–glutathione interaction disruption – biochemical, multiplex beads, flow cytometry, HPSMTB buffer, profiling panel (AID 1324).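 Also: glutathione beads loaded with GST-green fluorescent protein and no fluorescent Bim peptide.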 To be noted: multiplex bead flow cytometry, MCF. In general terms: In flow cytometry, cells or beads pass a laser one at a time.
For `CCOC(=O)c1ccc(Nc2nc(C(=O)OCC)nc3ccccc23)cc1`, the EC50 is 2.38 µM. `CCN(CC)c1ccc(NC2=C(Cl)C(=O)c3ccccc3C2=O)cc1`: the EC50 result is “inactive”. On the same count and under the same terms, under `Cc1cccc(N=C2NC(=O)/C(=C/C=C/c3ccco3)S2)c1C` stands “inactive”; under `CN1CCc2cccc3c2[C@@H]1Cc1ccc(O)c(O)c1-3`, “inactive”.

Still in this test, the particulars now being: multiplex bead flow cytometry, MCF, stronger effect = higher value, concentration not given here.
With `O=C(NCCCN1CCCC1=O)NC1CCCCC1`, the percent span inhibition result was “inactive”. Consider `Cc1c(N=C2C=CC(=O)c3ccccc32)c(=O)n(-c2ccccc2)n1C`, for which the percent span inhibition result is “inactive”. With `Cc1ccc(-n2nc(C)c(C(=O)O)n2)c(C)c1`, the percent span inhibition entry is “inactive”.

In the case of `COc1ccccc1Oc1ccc2c(c1)C(=O)N(c1cccc3ncccc13)C2=O`, the percent span inhibition entry is “inactive”. Turning to `CCN1C(=O)/C(=C/C=C2\C=CN(CC)c3ccccc32)SC1=S`, the percent span inhibition entry was “inactive”. For the compound `O=C(N/N=C/c1ccc(-c2ccccc2[N+](=O)[O-])o1)c1cncc(Br)c1`, the percent span inhibition result was “inactive”. Same read-out and setting: in the case of `Cc1c(N2C(=O)c3ccc4c5c(ccc(c35)C2=O)CC4)c(=O)n(-c2ccccc2)n1C` it was “inactive”. As to `CC(=O)NC1=C(NC2CCS(=O)(=O)C2)C(=O)c2ccccc2C1=O` (stereo not drawn), the percent span inhibition entry is “inactive”. Same read-out and setting: under `Cc1c(NC2=C(Cl)C(=O)N(c3ccccc3Cl)C2=O)c(=O)n(-c2ccccc2)n1C` stands “inactive”; under `Nc1c(C(=O)NC2CC2)sc2nc3c(c(-c4ccco4)c12)CC/C3=C/c1ccco1`, “inactive”; under `Cc1ccc(NC(=O)CC2S/C(=N/N=C/c3c[nH]c4ccccc34)NC2=O)cc1` (stereo not drawn), “inactive”.

Regarding `COc1ccc(C2CC(=O)C3=C(C2)Nc2ccccc2NC3c2coc3ccccc3c2=O)cc1OC` (stereo not drawn), the percent span inhibition result was “inactive”. The same measure, in the same setting: in the case of `Cc1cccc(C(=O)N=c2c(C#N)cc3c(=O)n4cccc(C)c4nc3n2Cc2ccco2)c1` it was “inactive”; in that of `O=C(O)CC/C(=C\c1cc([N+](=O)[O-])ccc1Cl)c1nc2ccccc2s1`, “inactive”.

In the case of `O=C(CSc1nnc(-c2ccccc2)c(-c2ccccc2)n1)N1CCc2ccccc21`, the percent span inhibition result is “inactive”.

For `Clc1nc(NCc2cccnc2)nc(N2CCOCC2)n1`, the percent span inhibition result is “inactive”. Turning to `Cc1ccc(/C=N/NC(=O)CSc2nnc(-c3ccc(Cl)cc3)n2-c2ccccc2)o1`, the percent span inhibition entry was “inactive”. Same read-out and setting: under `CCOC(=O)c1[nH]cnc1C(=O)NC(C)C` stands “inactive”.

Turning to `O=C(c1cnccn1)N(Cc1cccs1)C1(C(=O)NC2CCCCC2)CCCCC1`, the percent span inhibition result is “inactive”. In the case of `CCOC(=O)C1CCN(C(=O)Nc2ccc3nc(-c4ccco4)c(-c4ccco4)nc3c2)CC1`, the percent span inhibition entry was “inactive”.

As for `O=C(/C=C/c1ccccc1Cl)c1ccccc(=O)c1O`, the percent span inhibition entry was “inactive”. The same measure, in the same setting: in the case of `O=C(/C=C/c1ccc(-c2ccccc2[N+](=O)[O-])o1)c1ccc(F)cc1` it was “inactive”. `Cn1c(=O)c2cc(S(=O)(=O)Nc3cc(C(=O)O)cc(C(=O)O)c3)ccc2n(C)c1=O`: the percent span inhibition result was “inactive”. On to `CC(C)NS(=O)(=O)c1ccc(OCC(=O)Nc2ccc(F)cc2)cc1`, for which the percent span inhibition result was “inactive”.

As for `CCOC(=O)c1nc(Nc2ccc(Nc3ccccc3)cc2)c2ccccc2n1`, the percent span inhibition entry is “inactive”. The same measure, in the same setting: in the case of `COc1ccc(COC(=O)NNC(=O)c2ccccc2Cl)cc1` it was “inactive”.

On to `O=C1/C(=C\c2ccco2)NC(=S)N1c1ccccc1`, for which the percent span inhibition result was “inactive”.

On to `Cc1ccc(C)c(Oc2ncnc(N)c2[N+](=O)[O-])c1`, for which the percent span inhibition result is “inactive”. On the same count and under the same terms, in the case of `C/C(=N/NC(=O)c1cc(O)c(O)c(O)c1)c1ccc([N+](=O)[O-])cc1` it was “inactive”; in that of `Cc1ccc(-c2c3c([nH]c(=S)c2C#N)CCCC3)o1`, “inactive”. Same read-out and setting: in the case of `O=C(Nc1nnc(C2CC2)s1)C1Cc2ccccc2CN1S(=O)(=O)c1ccccc1F` (stereo not drawn) it was “inactive”; in that of `Clc1nssc1=Nc1ccccc1`, “inactive”. `CCN(CC)S(=O)(=O)c1cccc(C(=O)N/N=C/c2ccc(O)c(O)c2O)c1`: the percent span inhibition result was “inactive”.

For `Cc1nnc(Sc2cc(NCCCO)c([N+](=O)[O-])c3nonc23)s1`, the percent span inhibition entry is “inactive”. On the same count and under the same terms, under `Cc1ccccc1-c1nc(-c2ccc(NC(=O)c3ccc4c(c3)OCO4)cc2)no1` stands “inactive”. Still for that read-out and setting: in the case of `CCOc1cc(/C=C2/N=C(C)C(C(=O)OC)=C2O)ccc1O` it was “inactive”; in that of `COc1ccccc1C1=Nc2cccc3cccc(c23)N1`, “inactive”. `COc1ccc(C(=S)N2CCCCCC2)cc1`: the percent span inhibition entry was “inactive”. For `Clc1nssc1=Nc1ccc(Br)cc1`, the percent span inhibition result was “inactive”.

On to `O=C(Nc1ccccc1)c1ccc2nc(-c3ccco3)c(-c3ccco3)nc2c1`, for which the percent span inhibition entry was “inactive”. For the compound `Cc1ccc(-n2[nH]c(C)c(/C=N/Nc3ccc([N+](=O)[O-])cc3[N+](=O)[O-])c2=O)cc1C`, the percent span inhibition entry was “inactive”.

Turning to `COc1ccc(C(=O)NC(=S)N2CCNC(=O)C2)cc1Br`, the percent span inhibition entry is “inactive”. In the case of `CCN1/C(=C/c2ccc3cc(C)cc(C)c3[n+]2CC)Sc2cc(C)ccc21`, the percent span inhibition entry is “inactive”.

`CC1CC2=C(NC(=S)NC2c2cccc(F)c2)/C(=C/c2cccc(F)c2)C1` (stereo not drawn): the percent span inhibition result was “inactive”. In the case of `Cc1ccc(C)n1-c1ccc(N2CCOCC2)cc1`, the percent span inhibition result is “inactive”. Regarding `COc1cc2[nH]c(=S)nc(NCCCOC(C)C)c2cc1OC`, the percent span inhibition entry is “inactive”. With `Fc1ccc(C2=Nn3c(Cc4ccccc4F)nnc3SC2)cc1`, the percent span inhibition result was “inactive”. For `COc1cc(N=c2ssnc2Cl)cc(OC)c1OC`, the percent span inhibition result was “inactive”.

Turning to `O=[N+]([O-])c1ccc2[nH]nc(-c3ccccc3)c2c1`, the percent span inhibition entry is “inactive”. `COc1ccc(Cc2c(O)nc(SC)n(C(C)=O)c2=O)cc1`: the percent span inhibition result is “inactive”.

`COc1cc(/C=C2\S/C(=N/S(=O)(=O)c3ccccc3)NC2=O)c([N+](=O)[O-])cc1OC`: the percent span inhibition entry is “inactive”. As to `Cc1ccc(S(=O)(=O)NC(=O)COc2ccccc2C)cc1`, the percent span inhibition result was “inactive”. Consider `Cc1cc(C)c2c(N)c3cccc(C)c3nc2n1`, for which the percent span inhibition result was “inactive”. As for `O=C(CNC(=O)c1ccco1)NCC(=O)OCc1ccccc1Br`, the percent span inhibition entry is “inactive”. For the compound `CCOc1ccc(CNc2ccc(N3CCCC3)cc2)cc1`, the percent span inhibition result was “inactive”. The same measure, in the same setting: under `O=C(Cn1c(-c2ccccc2)noc1=O)N1CCC(Cc2ccccc2)CC1` stands “inactive”; under `CC1(C)CC(=O)C(C=NCCN2CCN(CCc3ccccc3)CC2)=C(O)C1`, “inactive”. For `COc1ccc(NC(=O)C2=C(C)NC(=O)NC2c2cccc(OC)c2OC)c(OC)c1` (stereo not drawn), the percent span inhibition result was “inactive”. On the same count and under the same terms, under `CCn1cc(C=C2C(=O)c3ccccc3C2=O)c2ccccc21` stands “inactive”.
